# Laboratory results taken from patent US8409618B2, “Odor-reducing quinone compounds” (Kimberly-Clark Worldwide, Inc., priority 2002, dated 2013).
# What was measured:
# [1] = Redox potential (redox potentiometry); format: physicochemical; conditions: compared with hydrogen (set at 0)
# Description: The ability of quinone compounds to accept electrons from another substance (i.e., be reduced) may be quantified using a technique known as redox potentiometry. Redox potentiometry is a technique that measures (in volts) the affinity of a substance for electrons—its electronegativity—compared with hydrogen (which is set at 0). Substances more strongly electronegative than (i.e., capable of oxidizing) hydrogen have positive redox potentials. Substances less electronegative than (i.e., capable of reducing) hydrogen have negative redox potentials. The greater the difference between the redox potentials of two substances (ΔE), the greater the vigor with which electrons will flow spontaneously from the less positive to the more positive (more electronegative) substance. As is well known in the art, redox potential may be measured using any of a variety of commercially available meters, such as an Oxidation Reduction Potential (ORP) tester commercially available from Hanna Instruments, Inc. of Woonsocket, R.I. The redox potential of the quinone compounds may, for instance, be less than about −50 millivolts (mV), in some embodiments less than about −150 mV, in some embodiments less than about −300 mV, and in some embodiments, less than about −500 mV. Although not always the case, the redox potential may vary based on the number and location of functional groups, such as sulfonic acid, on the quinone structure. For example, 2-sulfonic acid anthraquinone has a redox potential of −380 mV; 2,6-disulfonic acid anthraquinone has a redox potential of −325 mV; and 2,7-disulfonic acid anthraquinone has a redox potential of −313 mV. Likewise, 2-sulfonic acid naphthaquinone has a redox potential of −60 mV. The use of other functional groups may also have an affect on the ultimate redox potential of the compound. For example, Acid Blue 25, which also contains amino- and aramid functional groups, has a redox potential of −605 mV.
# [2] = Urine odor panel ranking, dye-coated Poise pads without SN-AK (Example 8); set-up: species or system human
# Method: (§1) Qualitative odor reduction was also assessed against common odors, such as garlic and urine. Specifically, panelists assessed odorant-containing jars by carefully unscrewing, and then raising the lid of each jar in a controlled manner, such that the odor was not diluted by the ambient air. The jars were wrapped and coded to ensure that the sample identity was unknown.
# Specifically, Acid Green 25, Acid Green 41, Acid Blue 129, and D&C Green No. 5 were tested. Powders of the aforementioned dyes (commercially available from Sigma-Aldrich Chemical Co., Inc. of St. Louis, Mo. and Noveon Hilton Davis, Inc. of Cincinnati, Ohio) were dissolved in water so that the concentration of the dye was 8 millimolar (equivalent to 0.5 wt. %). Samples of tissue wrap were created by cutting 9″×6″ sheets from a roll of tissue (1 ply white cellulose wrap sheet having a basis weight of 16.6 grams per square meter) were weighed, oven-dried overnight at 90° C., and weighed again the next day to calculate the amount of residual water in each wrap. The wraps were then dipped into a respective dye solution and hung to dry overnight, after which they were weighed again. The treated wraps were then rinsed in deionized water to remove any unbound dye and hung again to dry overnight. After weighing the treated wraps, they were once again oven-dried overnight at 90° C. and weighed to determine the dry add-on percentages ([…]). The add-on percentage for each sample was approximately 1.6 wt. %.
# Two different sets of Poise® pads (commercially available from Kimberly-Clark Corp.) were tested. The first set of dye-coated tissue wraps (without SN-AK) was inserted around the pledgette area of the Poise® pads. The Poise® pads were cut open and the tissue wrap surrounding the pledgette carefully removed and replaced with dye-coated tissue wrap. The second set of dye-coated tissue wraps (without SN-AK) used dye coatings on the top of the pad (rather than inside). These pads were constructed by spreading the solution over the top of each pad. To prevent the superabsorbent area of the pad from soaking up the solution, the pads were cut open prior to coating and a layer of plastic wrap was placed between the top layer of the pad and the superabsorbent core. A pad that was cut open, but coated only with water on top, was used as a control. All pads were dried at room temperature overnight before placing them in mason jars for testing. For control purposes, a Poise® pad was also tested that was cut open, but retained its original tissue wrap. In addition, Serenity® Night & Day™ incontinence pads, which are commercially available from SCA Incontinence Care of Eddystone, Pa. and said to employ OdaSorb Plus™ to reduce odor, were also used for comparison.
# Fresh human female urine was then pooled, and 50-milliliter aliquots were applied to the pads using a pipette. The mason jars were placed in a 37° C. incubator overnight for assessment the next day. […] Panelists were again asked to rank any secondary odors for unpleasantness on a scale of 1-5.
# [3] = Urine odor panel ranking, dye powders in urine, 8 millimolar (Example 5); set-up: species or system human; conditions: 8 millimolar dye in urine; for urine malodor reduction (panel): 6 and 24 hours; for Avg. Ranking (odor) / Ranking (number of panelists): ranking 1 / Ranking (number of panelists): ranking 4 / Ranking (number of panelists): ranking 3 / Ranking (number of panelists): ranking 5 / Ranking (number of panelists): ranking 7: 10 most, 1 least malodorous
# Method: Qualitative odor reduction was also assessed against common odors, such as garlic and urine. Specifically, panelists assessed odorant-containing jars by carefully unscrewing, and then raising the lid of each jar in a controlled manner, such that the odor was not diluted by the ambient air. The jars were wrapped and coded to ensure that the sample identity was unknown. The effectiveness of various quinone dyes in reducing urine odor was compared. Human female urine was initially collected and pooled by a nurse on staff at Kimberly-Clark Corporation.
# [4] = Urine odor and secondary odor panel ranking, dye powders in urine, 8 millimolar (Example 7); set-up: species or system human; conditions: for Average Urine Odor Ranking (with statistical corrections), Avg. Score: ignoring statistical anomalies; for Secondary Odor Ranking: scale 1 to 5, 5 extremely unpleasant, individual panelists' scores
# Method: as §1
# The effectiveness of various dyes in reducing urine odor was compared. […] Human female urine was initially collected and pooled by a nurse on staff at Kimberly-Clark Corporation. The pooled urine was added to mason jars in 50-milliliter aliquots using an automated pipette aid. Powders of the aforementioned dyes (commercially available from Sigma-Aldrich Chemical Co., Inc. of St. Louis, Mo. and Noveon Hilton Davis, Inc. of Cincinnati, Ohio) were weighed and placed into the mason jars containing 50 milliliters of urine so that the final concentration of the dye powder was 8 millimolar (equivalent to 0.5 wt. %). The mason jars were placed in an incubator overnight at 37° C.
# To aid in the assessment of the dyes, the mason jars were divided into two groups for a morning assessment, and the best of both groups were compared in an afternoon assessment (after a total of 24 hours). In addition to ranking the jars from least to most malodorous (on a scale from 1 to 7, with 7 being the most malodors), panelists were also asked to judge whether there were secondary (non-urine) odors present and, if so, the extent that the secondary odors were unpleasant (on a scale from 1 to 5, with 5 being extremely unpleasant).
# In this assessment, panelists were given instructions to rank the least malodorous jar as “1” and the most malodorous jar as “10,” remaining free to rank the other jars between 2-9.
# [5] = 1st set (tissue-wrap coating), After 30 Hours
# [6] = After 24 Hours, top performers of both groupings, 1 least, 10 most malodorous
# [7] = Second Grouping, morning assessment, 8 millimolar, higher = more malodorous
# [8] = after 24 hours, top performers, 1 least, 10 most malodorous
smiles,measurement,setting,value
"O=C1c2ccc(S(=O)(=O)O)cc2C(=O)c2ccc(S(=O)(=O)O)cc21 [2,6-disulfonic acid anthraquinone]",redox potential,[1],−325 mV
"O=C1c2ccc(S(=O)(=O)O)cc2C(=O)c2cc(S(=O)(=O)O)ccc21 [2,7-disulfonic acid anthraquinone]",redox potential,[1],−313 mV
O=C1c2ccccc2C(=O)c2cc(S(=O)(=O)O)ccc21 [2-sulfonic acid anthraquinone],redox potential,[1],−380 mV
O=C1C=C(S(=O)(=O)O)C(=O)c2ccccc21 [2-sulfonic acid naphthaquinone],redox potential,[1],−60 mV
Cc1cc(C)c(Nc2cc(S(=O)(=O)[O-])c(N)c3c2C(=O)c2ccccc2C3=O)c(C)c1.[Na+] [Acid Blue 129],Urine Odor Ranking (number of panelists): ranking 1,[2]; [5],1 number of panelists
same,Urine Odor Ranking (number of panelists): ranking 3,[2]; [5],1 number of panelists
same,Urine Odor Ranking (number of panelists): ranking 4,[2]; [5],2 number of panelists
same,"Average Urine Odor Ranking, Avg. Score","[2]; 1st set (tissue-wrap coating), final pooled assessment",3.00
same,"urine odor reduction (panel), assessment within set","[2]; first set of pads (dye-coated tissue wrap around pledgette), overnight 37° C.",performed best for the first set of pads
same,overall urine odor control performance (panel),"[2]; tissue-wrap coating, final pooled assessment",performed very well
same,urine malodor reduction (panel),[3],functioned effectively in reducing urine malodor
same,Avg. Ranking (odor),[3]; After 6 Hours,1.6
same,Ranking (number of panelists): ranking 1,[3]; After 6 Hours,4 number of panelists
same,Ranking (number of panelists): ranking 4,[3]; After 6 Hours,1 number of panelists
same,Avg. Ranking (odor),[3]; After 24 Hours,1.3
same,Ranking (number of panelists): ranking 1,[3]; After 24 Hours,5 number of panelists
same,Ranking (number of panelists): ranking 3,[3]; After 24 Hours,1 number of panelists
same,Urine Odor Ranking (number of panelists): ranking 1,[4]; [6],1 number of panelists
same,Urine Odor Ranking (number of panelists): ranking 3,[4]; [6],1 number of panelists
same,Urine Odor Ranking (number of panelists): ranking 4,[4]; [6],1 number of panelists
same,Urine Odor Ranking (number of panelists): ranking 5,[4]; [6],1 number of panelists
same,Urine Odor Ranking (number of panelists): ranking 6,[4]; [6],1 number of panelists
same,"Average Urine Odor Ranking, Avg. Score",[4]; Second Grouping,1.8
same,Urine Odor Ranking (number of panelists): ranking 1,[4]; [7],3 number of panelists
same,Urine Odor Ranking (number of panelists): ranking 3,[4]; [7],2 number of panelists
same,urine odor reduction (panel),"[4]; after 24 hours, top performers of both groupings",achieved the best odor reduction
same,"Average Urine Odor Ranking, Avg. Score",[4]; [8],3.8
same,"Average Urine Odor Ranking (with statistical corrections), Avg. Score","[4]; after 24 hours, top performers",3.8
CCCCc1ccc(Nc2ccc(Nc3ccc(CCCC)cc3S(=O)(=O)[O-])c3c2C(=O)c2ccccc2C3=O)c(S(=O)(=O)[O-])c1.[Na+].[Na+] [Acid Green 27],urine malodor reduction (panel),[3],functioned effectively in reducing urine malodor
same,Avg. Ranking (odor),[3]; After 6 Hours,4.4
same,Ranking (number of panelists): ranking 4,[3]; After 6 Hours,3 number of panelists
same,Ranking (number of panelists): ranking 5,[3]; After 6 Hours,2 number of panelists
same,Avg. Ranking (odor),[3]; After 24 Hours,4.5
same,Ranking (number of panelists): ranking 1,[3]; After 24 Hours,1 number of panelists
same,Ranking (number of panelists): ranking 3,[3]; After 24 Hours,2 number of panelists
same,Ranking (number of panelists): ranking 7,[3]; After 24 Hours,3 number of panelists
same,Urine Odor Ranking (number of panelists): ranking 2,[4]; [6],1 number of panelists
same,Urine Odor Ranking (number of panelists): ranking 8,[4]; [6],2 number of panelists
same,Urine Odor Ranking (number of panelists): ranking 9,[4]; [6],1 number of panelists
same,Urine Odor Ranking (number of panelists): ranking 10,[4]; [6],1 number of panelists
same,Secondary Odor Ranking,[4]; After 24 Hours,4
same,"Average Urine Odor Ranking, Avg. Score",[4]; Second Grouping,3.6
same,Urine Odor Ranking (number of panelists): ranking 2,[4]; [7],2 number of panelists
same,Urine Odor Ranking (number of panelists): ranking 4,[4]; [7],1 number of panelists
same,Urine Odor Ranking (number of panelists): ranking 5,[4]; [7],2 number of panelists
same,Secondary Odor Ranking,[4]; Second Grouping,2
same,"Average Urine Odor Ranking, Avg. Score",[4]; [8],6.4
same,"Average Urine Odor Ranking (with statistical corrections), Avg. Score","[4]; after 24 hours, top performers",8.8
Cc1ccc(Nc2ccc(Nc3ccc(C)cc3S(=O)(=O)[O-])c3c2C(=O)c2ccccc2C3=O)c(S(=O)(=O)[O-])c1.[Na+].[Na+] [D&C Green No. 5],urine malodor reduction (panel),[3],functioned effectively in reducing urine malodor
same,Avg. Ranking (odor),[3]; After 6 Hours,3.0
same,Ranking (number of panelists): ranking 1,[3]; After 6 Hours,1 number of panelists
same,Ranking (number of panelists): ranking 3,[3]; After 6 Hours,3 number of panelists
same,Ranking (number of panelists): ranking 5,[3]; After 6 Hours,1 number of panelists
same,Avg. Ranking (odor),[3]; After 24 Hours,5.2
same,Ranking (number of panelists): ranking 4,[3]; After 24 Hours,3 number of panelists
same,Ranking (number of panelists): ranking 5,[3]; After 24 Hours,1 number of panelists
same,Ranking (number of panelists): ranking 7,[3]; After 24 Hours,2 number of panelists
same,Urine Odor Ranking (number of panelists): ranking 2,[4]; [6],1 number of panelists
same,Urine Odor Ranking (number of panelists): ranking 4,[4]; [6],1 number of panelists
same,Urine Odor Ranking (number of panelists): ranking 7,[4]; [6],2 number of panelists
same,Urine Odor Ranking (number of panelists): ranking 10,[4]; [6],1 number of panelists
same,Secondary Odor Ranking,[4]; After 24 Hours,4
same,urine odor reduction (panel),[4]; Second Grouping,did not perform as well compared to the other dyes
same,Urine Odor Ranking (number of panelists): ranking 4,[4]; [7],3 number of panelists
same,Urine Odor Ranking (number of panelists): ranking 5,[4]; [7],2 number of panelists
same,Secondary Odor Ranking,[4]; Second Grouping,4
same,"Average Urine Odor Ranking, Avg. Score",[4]; [8],6.0
same,"Average Urine Odor Ranking (with statistical corrections), Avg. Score","[4]; after 24 hours, top performers",7.0
